Patent US10494404B2, “Quinolinium conjugates of cyclosporin” (priority 2014, dated 2019)

Key:
[1] = test system: Ca^2+ mediated PT pore formation; assay: Calcium retention capacity (CRC) assay, isolated WT mouse liver mitochondria; format: biochemical; settings: 8 nM
Excerpt: In order to assess the efficiency of compounds on Ca^2+ mediated PT pore formation we measured calcium retention capacity (CRC) of isolated mouse liver mitochondria. […] Energised mitochondria take up Ca^2+, resulting in a declining fluorescent signal following the Ca^2+ bolus induced peak. Mitochondria take up and buffer Ca^2+ up to a threshold when intramitochondrial [Ca^2+] reaches threshold to induce PT. […] The amount of Ca^2+ required to induce PT characterizes its Ca^2+ sensitivity and defines mitochondrial CRC. Inhibition of CypD, the Ca^2+ sensor of PT, thus leads to increased CRC.
Further experiments were carried out using the techniques discussed in Example 4.
Subcellular fractionation was performed as previously described (Astin et al, 2013). […] At 4° C., the liver was rinsed in PBS to remove excess blood, and any fat and connective tissue was eliminated. PBS was then replaced with isolation buffer containing 1 mM PMSF, and the liver was chopped into pieces (approximately 2 mm in length). Tissue was then homogenized in this solution until no solid matter remained, and then centrifuged at 800G for 10 minutes at 4° C. The nuclear pellet was then discarded, and the post nuclear supernatant retained, and centrifuged at 10300G for another 10 minutes at 4° C. The postmitochondrial supernatant was discarded, and the mitochondrial pellet was resuspended in isolation buffer and PMSF, and kept on ice. Protein levels were quantified using a ThermoScientific BCA protein quantification assay, as per manufacturer's instructions.
Isolated mitochondria were resuspended (500 μg protein/ml) in MSK buffer (75 mM mannitol, 25 mM sucrose, 5 mM potassium phosphate monobasic, 20 mM Tris-HCl, 100 mM KCl, and 0.1% bovine serum albumin, pH 7.4) supplemented with 10 mM succinate, 1 μM rotenone and 1 μM Fluo5N. 200 μl mitochondrial suspension per well was used in 96 well microplates. Compounds were incubated for ten minutes before the plate was assayed in a Fluostar Optima plate reader, using Ex/Em filters at 480/520 […]; CaCl2 was injected approximately every 6.5 minutes for 80 minutes (12 total injections, final concentration of 75 μM). To calculate % inhibition of Ca^2+ induced pore opening, first areas under each curve were calculated, and controls without CaCl2 addition were subtracted as background. The background corrected values were then expressed as the fraction of controls without mitochondria, representing the total amount of Ca^2+ added, unbuffered by mitochondria. Percentage inhibition for each [compound] was then calculated as the % of the corresponding value for the untreated condition. […] For experiments with CypD −/− mice, 100 ul mitochondrial suspension per well was used. CaCl2) was injected approximately every 6.5 minutes for 135 minutes (20 total injections, final concentration of 266 μM). Data were background corrected and expressed as the fraction of controls without mitochondria, and then normalised to the wild type no drug condition. Significance was assessed by one way ANOVA.

[2] = molecular target: Cylophilin D (CypD) (Homo sapiens, UniProt P30405); assay: Cyclophilin D competitive fluorescence polarization assay; settings: competitive FP assay; FP-CsA 45 nM, enzyme 40 nM; read-out: Ki for cylophilin D binding
Protocol: A competitive fluorescence polarization assay (FP-assay) was used.
Polarization was determined by measuring the ratios between parallel and perpendicular polarized light and calculated as described by Roehrl et al 2004.
Titration of a single probe concentration against different enzyme concentrations was used to determine the dissociation constant (Kd) (Nikolovska et al 2004). The inhibitor constant (Ki) was calculated with the equation shown below in Equation A. (Nikolovska et al 2004).
Three replicates were used for this experiment. […] DMSO % in total solution should remain lower than 1%.

[3] = test system: HepG2 cells; assay: HepG2 high content screening of cell health markers; format: cell-based; settings: HepG2, 72 h exposure
Protocol: HepG2 cells were plated on 96-well tissue culture treated black walled clear bottomed polystyrene plates, 100 μL, (3000 cells) per well. After 24 hours the cells were dosed with the test compounds at a range of concentrations. At the end of the incubation period, the cells were loaded with the relevant dye/antibody for each cell health markers set out below. The plates were then scanned using an automated fluorescent cellular imager [ArrayScan VTI (Thermo Scientific Cellomics)].
The following cell health markers were measured: • a. Cell count—a decreasing number of cells per well indicates toxicity due to necrosis, apoptosis or a reduction in cellular proliferation. • b. Nuclear area—an increase in nuclear size indicates necrosis or G2 cell cycle arrest and a decrease indicates apoptosis. • c. DNA structure—an increase in DNA structure indicates chromosomal instability and DNA fragmentation. • d. […]
HepG2 cells were seeded in black, clear-bottom 96-well tissue culture plates at a density of 3000 cells per well. […] Cell count, nuclear size and DNA structure were also measured Hoechst 33342 (Life Technologies). Following staining of the HepG2 cells fluorescence was analyzed by image acquisition with a Thermo Fisher Cellomics® ArrayScanVTI High Content Screening Reader (ThermoFisher Scientific Inc., Waltham, Mass.) and vHCS™ view software (ThermoFisher Scientific Inc.). […]

Chain of Cylophilin D (CypD) (P30405 30-207): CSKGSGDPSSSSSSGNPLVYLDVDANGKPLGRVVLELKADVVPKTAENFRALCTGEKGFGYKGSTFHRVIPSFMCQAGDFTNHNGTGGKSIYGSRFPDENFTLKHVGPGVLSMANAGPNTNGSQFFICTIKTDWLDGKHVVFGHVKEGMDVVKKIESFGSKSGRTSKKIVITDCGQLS

Ki [2]	Structure (SMILES)	inhibition of Ca2+ mediated PT pore formation [1]	toxicity (cell health markers) compared with unmodified CsA [3]
73 nM	C=CCC1C(=O)N(C)[C@@H](CC(C)C)C(=O)N[C@@H](C(C)C)C(=O)N(C)[C@@H](CC(C)C)C(=O)N[C@@H](C)C(=O)N[C@H](C)C(=O)N(C)[C@@H](CC(C)C)C(=O)N(C)[C@@H](CC(C)C)C(=O)N(C)[C@@H](C(C)C)C(=O)N(C)[C@@H]([C@H](O)[C@H](C)C/C=C/CCC[n+]2ccc(N(C)C)c3ccc(C(F)(F)F)cc32)C(=O)N[C@@H](CC)C(=O)N1C (stereo partly shown) [Compound 4]	retain high levels inhibition	
64 nM	CC[C@@H]1NC(=O)[C@H]([C@H](O)[C@H](C)C/C=C/CCC[n+]2ccc(O)c3ccccc32)N(C)C(=O)[C@H](C(C)C)N(C)C(=O)[C@H](CC(C)C)N(C)C(=O)[C@H](CC(C)C)N(C)C(=O)[C@@H](C)NC(=O)[C@H](C)NC(=O)[C@H](CC(C)C)N(C)C(=O)[C@H](C(C)C)NC(=O)[C@H](CC(C)C)N(C)C(=O)CN(C)C1=O [Compound 5, [Gly-(1S,2R,E)-8-(4-hydroxyquinolinium)-1-hydroxy-2-methyloct-4-ene]^1 CsA]		
46 nM	C/C=C/C[C@@H](C)[C@@H](O)[C@H]1C(=O)N[C@@H](CC)C(=O)N(C)C(C/C=C/CCC[n+]2ccc(O)c3ccccc32)C(=O)N(C)[C@@H](CC(C)C)C(=O)N[C@@H](C(C)C)C(=O)N(C)[C@@H](CC(C)C)C(=O)N[C@@H](C)C(=O)N[C@H](C)C(=O)N(C)[C@@H](CC(C)C)C(=O)N(C)[C@@H](CC(C)C)C(=O)N(C)[C@@H](C(C)C)C(=O)N1C (stereo partly shown) [Compound 6, [Sar-(E)-Hexen-2-yl-6-(4-hydroxy)quinolinium]^3 CsA]		
125 nM	C/C=C/C[C@@H](C)[C@@H](O)[C@H]1C(=O)N[C@@H](CC)C(=O)N(C)C(C/C=C/CCC[n+]2cccc3ccccc32)C(=O)N(C)[C@@H](CC(C)C)C(=O)N[C@@H](C(C)C)C(=O)N(C)[C@@H](CC(C)C)C(=O)N[C@@H](C)C(=O)N[C@H](C)C(=O)N(C)[C@@H](CC(C)C)C(=O)N(C)[C@@H](CC(C)C)C(=O)N(C)[C@@H](C(C)C)C(=O)N1C (stereo partly shown) [Compound 2, [Sar-(E)-Hexen-2-yl 6-quinolinium]^3 CsA]		
	CC[C@@H]1NC(=O)[C@H]([C@H](O)[C@H](C)C/C=C/CCC(=O)Nc2ccc(NCc3ccc(F)cc3)nc2N)N(C)C(=O)[C@H](C(C)C)N(C)C(=O)[C@H](CC(C)C)N(C)C(=O)[C@H](CC(C)C)N(C)C(=O)[C@@H](C)NC(=O)[C@H](C)NC(=O)[C@H](CC(C)C)N(C)C(=O)[C@H](C(C)C)NC(=O)[C@H](CC(C)C)N(C)C(=O)CN(C)C1=O [Reference Compound 1, [Gly-(1S,2R,E)-7-(flupirtine)-1-hydroxy-2-methyloct-4-enamide]^1 CsA, reference compound]		A similar reduction in toxicity was not observed
	CC[C@@H]1NC(=O)[C@H]([C@H](O)[C@H](C)C/C=C/CCC[n+]2ccc(N(C)C)c3ccc(C(F)(F)F)cc32)N(C)C(=O)[C@H](C(C)C)N(C)C(=O)[C@H](CC(C)C)N(C)C(=O)[C@H](CC(C)C)N(C)C(=O)[C@@H](C)NC(=O)[C@H](C)NC(=O)[C@H](CC(C)C)N(C)C(=O)[C@H](C(C)C)NC(=O)[C@H](CC(C)C)N(C)C(=O)CN(C)C1=O [Compound 3, [Gly(1S,2R,E)-10-(4-dimethylamino-7-trifluoromethylquinolinium)1-hydroxy-2-methyldec-4-enoic acid]^1 CsA]	retain high levels inhibition	
